Laboratory results reported in US20140050778A1, “NUCLEIC ACID BINDING COMPOUNDS, METHODS OF MAKING, AND USE THEREOF” (UNIVERSITY OF ROCHESTER, priority 2010, published 2014).

Columns and labels:
C5-14 cells = type: cell-based, mouse
Excerpt: Formation of (CUG)800 RNA-MBNL1 complexes in the C5-14 cell line suppresses translation of this mRNA and, therefore, suppresses the cellular level of luciferase Inhibition of protein complexation to the (CUG)800 RNA allows translation to occur, restoring luciferase expression. A second cell line (C1-S) carrying an analogous luciferase construct lacking the CUG repeats in the 3′-UTR was used as a positive control for luciferase expression. […] It was hypothesized that binding of the compounds of the present invention to the (CUG)800 repeat in C5-14 cells would likewise promote release of the luciferase transcripts from the nucleus, resulting in increased luciferase expression and activity. In contrast, luciferase activity in positive control (C1-S) cells should not be affected by the presence of CUG RNA binding compounds. […] The fact that this effect is not observed for compounds 10 and 11 likely results from their greater selectivity for CUG repeats. Thus, CUG^exp binding compounds are capable of releasing the sequestered mRNA transcripts into the cytoplasm for translation.

yeast tRNA = assay: Fluorescence titration control; type: binding; settings: yeast tRNA titrated into a mixture of compounds 4 and 5
Experimental: The benzo[g]quinoline moiety is fluorescent, with excitation and emission maxima at 362 nm and 439 nm respectively in methanol. Fluorescence titration binding measurements were performed on a Cary Eclipse fluorescence spectrophotometer using a 10 mm path-length semimicro quartz fluorescence cell with 400 μL sample holding capacity. Absorbance measurements were carried out on a UV-Visible spectrophotometer (Shimadzu, UV-1601PC) using a 1 mL (1 cm path-length) quartz cell. Spectroscopic grade anhydrous methanol used in the measurement of relative quantum yield of the 2-ethyl benzo[g]quinoline carboxylic acid was purchased from Alfa Aesar and was used without further purification. For these measurements, known procedures were used (Lee and Grissom, “Design, Synthesis, and Characterization of Fluorescent Cobalamin Analogues with High Quantum Efficiencies,” Org. Lett. 11:2499-2502 (2009); Joseph R. Lakowicz, Principles of Fluorescence Spectroscopy, 2nd edition (Kluwer Academic/Plenum Publishers, 1999), which are hereby incorporated by reference in their entirety). Briefly, RNA (10 μM stock) in HBS-N buffer was titrated into a solution of 1 μM compound in HBS-N. After each addition of RNA, ten minutes were allowed for equilibration before recording the change in fluorescence at 468.5 nm. […]
Selected equilibrium affinities for (CUG)10 were confirmed by fluorescence titration. […]

HSA^LR transgenic mice = assay: MBNL1-dependent splicing in mouse myotonic dystrophy model (RT-PCR, vastus muscle); type: in vivo; settings: 40 mg/kg intraperitoneally once per day for 5 days
Experimental: Mouse handling and experimental procedures were conducted in accordance with the Association for Assessment and Accreditation of Laboratory Animal Care. […] Age- and gender-matched HSA^LR mice (12-16 weeks old) were injected intraperitoneally with 40 mg/kg of compounds or saline alone once per day for 5 days. Mice were sacrificed one day after the last injection, and vastus muscle was obtained for splicing analysis. RNA extraction, cDNA preparation, and RT-PCR were performed as described previously. The PCR products were electrophoresed on agarose gels for separation, and scanned with a laser fluorimager (Typhoon, GE Healthcare). Quantitative analysis of amplified products was performed by ImageQuant software (Molecular Dynamics). Differences between two groups were evaluated by unpaired Student's t-test. A critical test of a compound's performance is its ability to function in vivo. DM1 has several well-studied mouse models (Gomes-Pereira et al., “Myotonic Dystrophy Mouse Models: Towards Rational Therapy Development,” Trends Mol. Med. 17:506-517 (2011), which is hereby incorporated by reference in its entirety). Compound activity in the HSA^LR mouse model, in which transgenic mice carry a long CTG repeat inserted into the human skeletal actin (HSA) gene in skeletal muscle (Mankodi, “Myotonic Dystrophy in Transgenic Mice Expressing an Expanded CUG Repeat,” Science 289:1769-1772 (2000), which is hereby incorporated by reference in its entirety) was examined. […] They also display aberrant splicing of genes, including Clcn1 and Atp2a1, which are hallmarks of nuclear transcript sequestration.

human fibroblasts = assay: Cell permeability by fluorescence microscopy; type: cell-based; settings: intrinsic fluorescence, 4 and 5 incubated as a mixture
Experimental: For cell permeability studies, human fibroblasts or mouse myoblasts grown to 80% confluence were exposed to compounds for 12 hours in a 96 well tissue culture plate. After removal of the culture media (DMEM, with 10% FBS, 1% pen-strep (GIBCO)) the cells were washed twice with PBS to remove excess compounds. Cells were then imaged while in buffer under a fluorescence microscope (Olympus IX70) in the 96-well plate using a 460 nm emission filter.
SPR and fluorescence titration experiments, performed using the protocol described in Examples 3 and 4 above, except using as the target a highly conserved RNA sequence responsible for regulating the production of the Gag-Pol polyprotein via a −1 ribosomal frameshift, which occurs along a “slippery sequence” in gag-pol mRNA (SEQ ID NO: 7). This “frameshift stimulatory sequence” (or “HIV-1 FSS”) consists of an upper stemloop and a lower stem, separated by a purine bulge in the most common types of HIV (FIG. 19). For the fluorescent titration experiments, the upper stemloop of SEQ ID NO: 7 was employed. Cell uptake and toxicity studies were carried out using human fibroblasts according to Example 5 above.

Row | SMILES | concentration of total protein in cell lysates (C5-14 cells) | binding of yeast tRNA (yeast tRNA) | improvement of Atp2a1 splicing (HSA^LR transgenic mice) | improvement of Clcn1 splicing (HSA^LR transgenic mice) | cell membrane penetration / localization (human fibroblasts)
1 | CCc1nc2cc3ccccc3cc2cc1C(=O)N1CCC[C@H]1C(=O)N[C@@H](C/C=C\C[C@H](NC(=O)[C@@H]1CCCN1C(=O)c1cc2cc3ccccc3cc2nc1CC)C(=O)N[C@@H](CCCCN)C(=O)NCCCN)C(=O)N[C@@H](CCCCN)C(=O)NCCCN [Compound 4] | decreasing level of protein expression | No binding | qualitatively appeared to restore splicing | modest but statistically significant (P=0.0115) improvement | Localization is shown, especially in the nucleus of cells
2 | CCc1nc2cc3ccccc3cc2cc1C(=O)N1CCC[C@H]1C(=O)N[C@@H](C/C=C/C[C@H](NC(=O)[C@@H]1CCCN1C(=O)c1cc2cc3ccccc3cc2nc1CC)C(=O)N[C@@H](CCCCN)C(=O)NCCCN)C(=O)N[C@@H](CCCCN)C(=O)NCCCN [Compound 5] |  | No binding |  |  | Localization is shown, especially in the nucleus of cells
